Experimental data reported in PMC10819887, “Production of AFB1 High-Specificity Monoclonal Antibody by Three-Stage Screening Combined with the De-Homologation of Antibodies and the Development of High-Throughput icELISA” (Toxins, 2023).
“And” between values parts separate entries of the source, which are not always exact repeats. Equal entries are not always repeated.

Columns and labels:
[1] = tested on: anti-AFB1 mAb (ZFG8); type: binding, mouse
[2] = tested on: ZFG8 monoclonal antibody; test: icELISA working-condition optimization and standard curves (ZFG8, AFB1-BSA); type: binding, mouse

## aflatoxin B1 [AFB1]
[1]
  Cross-Reactivity (%): 100%
  IC50: 0.3162 ng/mL
[2]
  IC20-IC80: 0.04197 to 0.6299 ng/mL and 0.03329 to 0.9399 ng/mL
  IC20-IC80 (linear detection range): 0.0422 to 1.293 ng/mL
[2]; pH 7.4
  IC50: 0.1811 ng/mL
